From BigSolDB 2.1

Compound `COC(=O)/C=C/C(=O)OC` has a solubility (mole fraction) (in ethanol, 289.95 K) of 0.00328, a solubility (mole fraction) (in ethanol, 294.45 K) of 0.00465 and a solubility (mole fraction) (in ethanol, 297.55 K) of 0.00607. The solubility (mole fraction) (in ethanol, 303.15 K) was 0.00908, the solubility (mole fraction) (in ethanol, 307.3 K) was 0.0122 and the solubility (mole fraction) (in ethanol, 311.1 K) was 0.0157. It also gave a solubility (mole fraction) (in ethanol, 314.75 K) of 0.0199, a solubility (mole fraction) (in ethanol, 318.65 K) of 0.0253 and a solubility (mole fraction) (in ethanol, 322.55 K) of 0.0326. For the same compound, the solubility (mole fraction) (in ethanol, 327.35 K) was 0.0431, the solubility (mole fraction) (in ethanol, 331.85 K) was 0.058 and the solubility (mole fraction) (in ethanol, 336.05 K) was 0.0751. The solubility (mole fraction) (in isopropanol, 295.8 K) was 0.00533, the solubility (mole fraction) (in isopropanol, 300.95 K) was 0.00748 and the solubility (mole fraction) (in isopropanol, 304.35 K) was 0.0097. For the same compound, the solubility (mole fraction) (in isopropanol, 306.7 K) was 0.0117, the solubility (mole fraction) (in isopropanol, 309.85 K) was 0.0148 and the solubility (mole fraction) (in isopropanol, 312.55 K) was 0.0183. For the same compound, the solubility (mole fraction) (in isopropanol, 316.85 K) was 0.025, the solubility (mole fraction) (in isopropanol, 320 K) was 0.0318 and the solubility (mole fraction) (in isopropanol, 322.8 K) was 0.0396. For the same compound, the solubility (mole fraction) (in isopropanol, 326.25 K) was 0.0486, the solubility (mole fraction) (in isopropanol, 329.75 K) was 0.0629 and the solubility (mole fraction) (in isopropanol, 332.85 K) was 0.0785. The solubility (mole fraction) (in isopropanol, 335.8 K) was 0.0997, the solubility (mole fraction) (in methanol, 297.45 K) was 0.00749 and the solubility (mole fraction) (in methanol, 301 K) was 0.00948. It also gave a solubility (mole fraction) (in methanol, 305.55 K) of 0.0122, a solubility (mole fraction) (in methanol, 309.17 K) of 0.0152 and a solubility (mole fraction) (in methanol, 312.85 K) of 0.0189. The solubility (mole fraction) (in methanol, 316.45 K) was 0.0231, the solubility (mole fraction) (in methanol, 319.37 K) was 0.0279 and the solubility (mole fraction) (in methanol, 322.28 K) was 0.0335. For the same compound, the solubility (mole fraction) (in methanol, 325.93 K) was 0.04, the solubility (mole fraction) (in methanol, 329.15 K) was 0.0491 and the solubility (mole fraction) (in methanol, 332.3 K) was 0.06. For the same compound, the solubility (mole fraction) (in methanol, 337.65 K) was 0.081, the solubility (mole fraction) (in n-propanol, 295.2 K) was 0.00504 and the solubility (mole fraction) (in n-propanol, 299.95 K) was 0.00668. It also gave a solubility (mole fraction) (in n-propanol, 304.35 K) of 0.00906, a solubility (mole fraction) (in n-propanol, 307.85 K) of 0.0114 and a solubility (mole fraction) (in n-propanol, 310.7 K) of 0.0138. For the same compound, the solubility (mole fraction) (in n-propanol, 313.2 K) was 0.0174, the solubility (mole fraction) (in n-propanol, 318.7 K) was 0.0253 and the solubility (mole fraction) (in n-propanol, 323.65 K) was 0.0369. The solubility (mole fraction) (in n-propanol, 328.95 K) was 0.0535, the solubility (mole fraction) (in n-propanol, 332.5 K) was 0.0686 and the solubility (mole fraction) (in n-propanol, 335.65 K) was 0.087. The solubility (mole fraction) (in n-propanol, 338.15 K) was 0.106, the solubility (mole fraction) (in n-propanol, 341.3 K) was 0.136 and the solubility (mole fraction) (in propylene glycol, 302.75 K) was 0.000378. For the same compound, the solubility (mole fraction) (in propylene glycol, 307.05 K) was 0.000797, the solubility (mole fraction) (in propylene glycol, 310.55 K) was 0.00143 and the solubility (mole fraction) (in propylene glycol, 314.25 K) was 0.00255. The solubility (mole fraction) (in propylene glycol, 316.75 K) was 0.00366, the solubility (mole fraction) (in propylene glycol, 320.05 K) was 0.00586 and the solubility (mole fraction) (in propylene glycol, 323.25 K) was 0.00886. For the same compound, the solubility (mole fraction) (in propylene glycol, 327.95 K) was 0.0149, the solubility (mole fraction) (in propylene glycol, 332.15 K) was 0.023 and the solubility (mole fraction) (in propylene glycol, 337.25 K) was 0.0349. For the same compound, the solubility (mole fraction) (in propylene glycol, 342.35 K) was 0.051, the solubility (mole fraction) (in propylene glycol, 347.15 K) was 0.073 and the solubility (mole fraction) (in water, 300.55 K) was 9.27e-05. The solubility (mole fraction) (in water, 302.6 K) was 0.000116, the solubility (mole fraction) (in water, 309.85 K) was 0.000236 and the solubility (mole fraction) (in water, 315.45 K) was 0.000365. It also gave a solubility (mole fraction) (in water, 322.4 K) of 0.000575, a solubility (mole fraction) (in water, 328.05 K) of 0.000781 and a solubility (mole fraction) (in water, 333.25 K) of 0.000989. It also gave a solubility (mole fraction) (in water, 337.05 K) of 0.00113, a solubility (mole fraction) (in water, 340.65 K) of 0.00132 and a solubility (mole fraction) (in water, 344.45 K) of 0.00148.
